In brackets after ≈: the same amount, converted by molar mass.
Experiments:
Assay type in all cases: cell-based
ESCHERICHIA COLI DC-2 = test: In vitro antibacterial activity, MIC, BHI agar dilution; conditions: E. coli DC-2, unit assumed
[1] = tested on: STAPHYLOCOCCUS AUREUS ATCC 6538P; test: as above; conditions: S. aureus ATCC 6538P, 35-37° C., 20 to 24 hours, unit assumed
[2] = tested on: STREPTOCOCCUS PYOGENES PIU 2548; test: as above; conditions: S. pyogenes PIU 2548, unit assumed
CANDIDA ALBICANS CCH 442 = test: as above; conditions: C. albicans CCH 442, unit assumed
[3] = tested on: STAPHYLOCOCCUS AUREUS CMX 642A; test: as above; conditions: S. aureus CMX 642A, unit assumed
ESCHERICHIA COLI KNK 437 = conditions: E. coli KNK 437; BHI agar; unit assumed
[4] = tested on: STAPHYLOCOCCUS AUREUS A5177; test: In vitro antibacterial activity, MIC, BHI agar dilution; conditions: S. aureus A5177, unit assumed
[5] = tested on: STAPHYLOCOCCUS EPIDERMIDIS 3519; conditions: S. epidermidis 3519; BHI agar; unit assumed
PSEUDOMONAS CEPACIA 296I = test: In vitro antibacterial activity, MIC, BHI agar dilution; conditions: P. cepacia 296I, unit assumed
[6] = tested on: STREPTOCOCCUS PYOGENES EES61; test: as above; conditions: S. pyogenes EES61, unit assumed
ESCHERICHIA COLI JUHL = conditions: E. coli JUHL; BHI agar; unit assumed
[7] = tested on: PSEUDOMONAS AERUGINOSA BMH10; test: In vitro antibacterial activity, MIC, BHI agar dilution; conditions: P. aeruginosa BMH10, unit assumed
[8] = tested on: STAPHYLOCOCCUS AUREUS A-5278; test: as above; conditions: S. aureus A-5278, unit assumed
[9] = tested on: PSEUDOMONAS AERUGINOSA K799/61; test: as above; conditions: P. aeruginosa K799/61, unit assumed
[10] = tested on: PSEUDOMONAS AERUGINOSA 5007; test: as above; conditions: P. aeruginosa 5007, unit assumed
[11] = tested on: STAPHYLOCOCCUS AUREUS NCTC10649M; test: as above; conditions: S. aureus NCTC10649M, unit assumed
[12] = tested on: PSEUDOMONAS AERUGINOSA DPHD-5263; test: as above; conditions: P. aeruginosa DPHD-5263, unit assumed
[13] = tested on: PSEUDOMONAS AERUGINOSA DPHD-2862; test: as above; conditions: P. aeruginosa DPHD-2862, unit assumed
ESCHERICHIA COLI SS = test: as above; conditions: E. coli SS, unit assumed
[14] = tested on: STREPTOCOCCUS PYOGENES 930; test: as above; conditions: S. pyogenes 930, unit assumed
ESCHERICHIA COLI H560 = test: as above; conditions: E. coli H560, unit assumed
[15] = tested on: PSEUDOMONAS AERUGINOSA K799/WT; test: as above; conditions: P. aeruginosa K799/WT, unit assumed
[16] = tested on: PROVIDENCIA STUARTII CMX 640; conditions: P. stuartii CMX 640; BHI agar; unit assumed
[17] = tested on: KLEBSIELLA PNEUMONIAE ATCC 8045; test: In vitro antibacterial activity, MIC, BHI agar dilution; conditions: K. pneumoniae ATCC 8045, unit assumed
[18] = tested on: ACINETOBACTER CALCOACETICUS CMX 669; test: as above; conditions: A. calcoaceticus CMX 669, unit assumed
[19] = tested on: MYCOBACTERIUM SMEGMATIS ATCC 114; test: as above; conditions: M. smegmatis ATCC 114, unit assumed
[20] = tested on: STAPHYLOCOCCUS AUREUS 1775; test: as above; conditions: S. aureus 1775, unit assumed
M[…] ATCC 9341 = test: as above; conditions: M. luteus ATCC 9341, unit assumed
Procedure, shortened: (§1)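 BHI agar dilution, 12 plates; inoculum 1:100 (1:10 slow-growing strains), Steers replicator; 35-37° C, 20-24 h. MIC = lowest conc. with no growth/slight haze/sparse colonies vs growth control, visual read. Erythromycin A reference plate.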

STR[…] 508 = test: as above; conditions: S. agalactiae CMX 508, unit assumed
Procedure, shortened: as §1

EN[…] ATCC 8043 = test: as above; conditions: E. faecium ATCC 8043, unit assumed
Procedure, shortened: as §1

M[…] ATCC 4698 = test: as above; conditions: M. luteus ATCC 4698, unit assumed
Procedure, shortened: as §1

[21] = tested on: ENTEROBACTER AEROGENES ATCC 13048; test: as above; conditions: E. aerogenes ATCC 13048, unit assumed
[22] = tested on: STAPHYLOCOCCUS AUREUS CMX 553; test: as above; conditions: S. aureus CMX 553, unit assumed
[23] = tested on: STREPTOCOCCUS BOVIS A-5169; test: as above; conditions: S. bovis A-5169, unit assumed

| SMILES | MIC (ESCHERICHIA COLI DC-2) [µg/mL] | MIC [1] [µg/mL] | MIC [2] [µg/mL] | MIC (CANDIDA ALBICANS CCH 442) [µg/mL] | MIC [3] [µg/mL] | MIC (ESCHERICHIA COLI KNK 437) [µg/mL] | MIC [4] [µg/mL] | MIC [5] [µg/mL] | MIC (PSEUDOMONAS CEPACIA 296I) [µg/mL] | MIC [6] [µg/mL] | MIC (ESCHERICHIA COLI JUHL) [µg/mL] | MIC [7] [µg/mL] | MIC [8] [µg/mL] | MIC [9] [µg/mL] | MIC [10] [µg/mL] | MIC [11] [µg/mL] | MIC [12] [µg/mL] | MIC [13] [µg/mL] | MIC (ESCHERICHIA COLI SS) [µg/mL] | MIC [14] [µg/mL] | further results |
| --- | --- | --- | --- | --- | --- | --- | --- | --- | --- | --- | --- | --- | --- | --- | --- | --- | --- | --- | --- | --- | --- |
| CC[C@H]1OC(=O)[C@H](C)C(=O)[C@H](C)[C@@H](O[C@@H]2O[C@H](C)C[C@H](N(C)C)[C@H]2O)[C@](C)(OC)C[C@@H](C)C2=N[C@@H]3CCCC[C@@H]3N3C(=O)O[C@@]1(C)[C@H]3[C@H]2C [Example 13] | 100 (≈ 145 µM) | 0.78 (≈ 1.13 µM) | 0.2 (≈ 0.289 µM) | 3.1 (≈ 4.48 µM) | 0.78 (≈ 1.13 µM) | 100 (≈ 145 µM) | 0.78 (≈ 1.13 µM) | 0.78 (≈ 1.13 µM) | > 100 | 0.02 (≈ 0.0289 µM) | 50 (≈ 72.3 µM) | > 100 | > 100 | 3.1 (≈ 4.48 µM) | > 100 | 0.78 (≈ 1.13 µM) | > 100 | > 100 | 0.39 (≈ 0.564 µM) | > 100 | MIC (ESCHERICHIA COLI H560): 50 µg/mL (≈ 72.3 µM); MIC [15]: > 100 µg/mL; MIC [16]: > 100 µg/mL; MIC [17]: 100 µg/mL (≈ 145 µM); MIC [18]: > 100 µg/mL; MIC [19]: 0.39 µg/mL (≈ 0.564 µM); MIC [20]: > 100 µg/mL; MIC (M[…] ATCC 9341): 0.2 µg/mL (≈ 0.289 µM); MIC (STR[…] 508): 0.02 µg/mL (≈ 0.0289 µM); MIC (EN[…] ATCC 8043): 0.1 µg/mL (≈ 0.145 µM); MIC (M[…] ATCC 4698): 0.78 µg/mL (≈ 1.13 µM); MIC [21]: 100 µg/mL (≈ 145 µM); MIC [22]: 0.78 µg/mL (≈ 1.13 µM) |
| CC[C@H]1OC(=O)[C@H](C)C(=O)[C@H](C)[C@@H](O[C@@H]2O[C@H](C)C[C@H](N(C)C)[C@H]2O)[C@](C)(OC)C[C@@H](C)C2=N[C@@H]3CCC[C@@H]3N3C(=O)O[C@@]1(C)[C@H]3[C@H]2C [Example 17] | > 100 | 0.78 (≈ 1.15 µM) | 0.39 (≈ 0.575 µM) | > 100 | 0.78 (≈ 1.15 µM) | > 100 | 0.78 (≈ 1.15 µM) | 0.78 (≈ 1.15 µM) | > 100 | 0.05 (≈ 0.0738 µM) | > 100 | > 100 | > 100 | 12.5 (≈ 18.4 µM) | > 100 | 0.78 (≈ 1.15 µM) | > 100 | > 100 | 0.78 (≈ 1.15 µM) | > 100 | MIC [23]: 0.02 µg/mL (≈ 0.0295 µM); MIC (ESCHERICHIA COLI H560): 100 µg/mL (≈ 148 µM); MIC [15]: > 100 µg/mL; MIC [16]: > 100 µg/mL; MIC [17]: > 100 µg/mL; MIC [18]: 100 µg/mL (≈ 148 µM); MIC [19]: 12.5 µg/mL (≈ 18.4 µM); MIC [20]: > 100 µg/mL; MIC (M[…] ATCC 9341): 0.1 µg/mL (≈ 0.148 µM); MIC (STR[…] 508): 0.05 µg/mL (≈ 0.0738 µM); MIC (EN[…] ATCC 8043): 0.2 µg/mL (≈ 0.295 µM); MIC (M[…] ATCC 4698): 0.78 µg/mL (≈ 1.15 µM); MIC [21]: > 100 µg/mL; MIC [22]: 0.78 µg/mL (≈ 1.15 µM) |

Source: patent US6274715A, “Tricyclic erythromycin derivatives” (priority 1997, dated 2001)
